Reference: patent US20190055590A1, “REGULARLY ARRANGED SPHEROIDS HAVING EQUAL SIZES AND USE THEREOF” (GAIA BioMedicine Inc., priority 2016, published 2019)

Legend:
CT26 GFP+ cells [1] = details: 384-well plate, row with EDTA added (FIG. 1)
Protocol: 1. Proliferate CT26 GFP^+ cells to a subconfluent or confluent state, then remove the culture medium by suction, and then wash the cells with phosphate buffered saline (PBS, Invitrogen). 2. Remove PBS, then add a 0.05% trypsin solution [0.25% trypsin, 1 mmol/L EDTA•4Na (Invitrogen), diluted 5-fold with PBS], and allow the reaction under the conditions of 37° C., 5% CO2, and 95% air until cells are separated from the dish. 3. Add 10% FBS-RPMI 1640 to suspend the cells, and collect them. 4. Perform centrifugation (400 g, 3 minutes) at 4° C., and then re-suspend the precipitates (cells) in 10% FBS-RPMI 1640. 5. Mix a part of the cell suspension with 0.4% trypan blue solution (Sigma-Aldrich), and count live cells under a phase contrast microscope by using a cell counting plate (OneCell Counter, OneCell Inc.). 6. In the case of 2D culture, dilute the cell suspension with 10% FBS-0.1% DMSO-RPMI 1640 to 3.0×10^4 cells/mL, and inoculate the cells on a culture plate (ViewPlate-384, PerkinElmer) in a volume of 20 μL/well using BIOMEK (registered trademark) NXP (BECKMAN COULTER). 7. […]
1. Observe morphology of the spheroids by 2 types of methods, in a bright field and with fluorescence, by using IN Cell Analyzer 2000 (GE Healthcare) 72 Hours after the treatment with the drug. […] Evaluate the spheroids on the basis of the total fluorescence amount (density×area) obtained from GFP as an index. […]

[2] = tested on: peritoneal dissemination (CT26 GFP+ cells); assay: In vivo test: peritoneal dissemination after intraperitoneal transfer of CT26 GFP+ cells; parameters: species or system male BALB/c mice; details: mice, comparison with the vehicle group on the final day (Tukey-Kramer HSD test)
Excerpt: 1. Use male BALB/c mice (henceforth referred to as mouse or mice, 6 to 8 weeks old at the time of use). 2. Put the mice in a plastic cage (W 136 mm×L 208 mm×H 115 mm) of which bottom is covered with a sterilized floor covering (Paper Clean, Japan SLC, Inc.) in a number of mice not larger than 5 mice per one cage until they are used for the experiments. 3. Allow the mice to ingest solid feed CRF-1 (Oriental Yeast Co., Ltd.) and tap water of water bottle ad libitum during the breeding period. 4. Perform individual identification of the mice by ear punching at the time of arrival of the mice (identification number starts from 01). 1. […] 2. […] 3. […] 4. […] 5. Inject 0.2 mL of the cell suspension into the abdominal cavity of each mouse (2.0×10^6 cells/body) by using a syringe with 26 G hypodermic needle (TERUMO CORP.). […] Spread the extracted alimentary canal on a 100-mm dish, and obtain images of the total alimentary canal in a bright field and with fluorescence by using BZ9000. […] On the last day of the evaluation, sacrifice the mice by cervical dislocation, open up the abdomen by midline incision, and collect the ascites reserved in the abdominal cavity with absorbent cotton of which weight is measured beforehand. […]

CT26 GFP+ cells [3] = assay: Tertiary screening: inhibition of spheroid formation, 2D vs 3D culture on 96 plate, ATP assay; format: cell-based; details: 96-well U-shaped bottom plate, pre-treatment or post-treatment
Protocol: Inoculation onto 96 Plate 1. […] 2. […] 3. […] 4. […] 5. […] 6. […] 7. […] 8. […] 1. Serially dilute a compound from the highest concentration of 20 μM at a common ratio of 1/10 for 7 doses (1% DMSO) with the medium. 2. Subsequently, add 10 μL of the serially diluted compound to the cell plate after the inoculation. 3. As for addition time of the drug, add the drug immediately after the inoculation (pre-treatment), or one day after the inoculation (post-treatment). On the final day of the evaluation, add CellTiter-Glo (registered trademark) 3D cell Viability Assay in the same volume as that of the culture volume, and 15 to 30 minutes thereafter, perform pipetting. Subsequently, transfer 120 μL of the cell lysate to Black Plate as required, and measure luminescence with a luminometer (Enspire etc.).

For `O=C(O)CN(CCN(CC(=O)O)CC(=O)O)CC(=O)O` [EDTA], the spheroid formation (CT26 GFP+ cells [1]) was “no spheroid formation”.

In the case of `O=C(NOC[C@H](O)CO)c1ccc(F)c(F)c1Nc1ccc(I)cc1F` [PD0325901], the “effect on peritoneal dissemination (fluorescence amount emitted from the alimentary canal extracted on the last evaluation day)” value ([2]; FIG. 6) was “confirmed in vivo”, the “effect on peritoneal dissemination (weight of the ascites collected on the last evaluation day)” value ([2]; FIG. 7) was “confirmed in vivo” and the “ability to inhibit spheroid formation” value (CT26 GFP+ cells [3]) was “high ability to inhibit spheroid formation”.
